Data as given in patent US20240398811A1, “PRC2 INHIBITORS FOR USE IN TREATING BLOOD DISORDERS” (ORIC Pharmaceuticals, Inc., priority 2021, published 2024).

Target: purified human, His-tagged PRC2 complex (Homo sapiens (Human), UniProt O75530)
Assay: Hot Spot HMT assay, inhibition of PRC2 enzymatic activity
Type: biochemical
Settings: 10 nM PRC2 complex, 1 μM 3H-SAM, core histone H3, 10-point dose-response
Procedure, shortened: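 Methyl transfer from 1 μM tritiated SAM onto 0.05 mg/ml core histone H3, catalysed by 10 nM His/Flag-tagged human PRC2 holoenzyme, was run 1 hr at 30° C after a 20 min compound preincubation. Serial dilutions began at 1.0 μM; product captured on filters and counted.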

purified human, His-tagged PRC2 complex, sequence (O75530 whole entry): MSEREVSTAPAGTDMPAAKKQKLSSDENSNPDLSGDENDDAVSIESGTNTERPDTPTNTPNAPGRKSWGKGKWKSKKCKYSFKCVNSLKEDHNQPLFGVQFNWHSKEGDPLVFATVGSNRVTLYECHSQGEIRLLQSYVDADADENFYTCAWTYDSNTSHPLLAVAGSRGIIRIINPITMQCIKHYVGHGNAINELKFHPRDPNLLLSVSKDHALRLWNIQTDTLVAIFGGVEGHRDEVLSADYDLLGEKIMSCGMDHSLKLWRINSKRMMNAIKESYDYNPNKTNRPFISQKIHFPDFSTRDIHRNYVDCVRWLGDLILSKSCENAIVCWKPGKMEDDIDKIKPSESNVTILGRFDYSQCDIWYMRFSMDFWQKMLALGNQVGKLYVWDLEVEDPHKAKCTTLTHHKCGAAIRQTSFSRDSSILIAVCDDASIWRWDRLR
purified human, His-tagged PRC2 complex, sequence (Q15910 whole entry partner): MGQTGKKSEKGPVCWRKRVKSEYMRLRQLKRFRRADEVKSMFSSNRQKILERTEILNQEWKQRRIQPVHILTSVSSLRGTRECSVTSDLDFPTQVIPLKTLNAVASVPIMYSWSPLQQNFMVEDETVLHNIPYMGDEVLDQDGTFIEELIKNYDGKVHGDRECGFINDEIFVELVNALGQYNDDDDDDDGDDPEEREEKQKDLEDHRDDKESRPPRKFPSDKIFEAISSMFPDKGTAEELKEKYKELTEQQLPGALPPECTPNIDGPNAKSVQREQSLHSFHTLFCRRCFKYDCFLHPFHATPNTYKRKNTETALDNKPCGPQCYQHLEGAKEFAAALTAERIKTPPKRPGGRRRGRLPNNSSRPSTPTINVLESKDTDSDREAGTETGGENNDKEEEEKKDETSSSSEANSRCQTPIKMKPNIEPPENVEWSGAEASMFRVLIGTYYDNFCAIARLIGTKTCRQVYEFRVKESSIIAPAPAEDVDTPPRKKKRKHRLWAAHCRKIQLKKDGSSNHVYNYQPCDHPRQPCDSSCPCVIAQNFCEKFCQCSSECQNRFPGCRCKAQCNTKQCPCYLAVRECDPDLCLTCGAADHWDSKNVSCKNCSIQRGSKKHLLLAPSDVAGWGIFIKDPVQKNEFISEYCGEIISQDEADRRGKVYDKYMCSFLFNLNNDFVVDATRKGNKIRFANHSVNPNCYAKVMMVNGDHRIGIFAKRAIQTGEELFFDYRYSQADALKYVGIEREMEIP
purified human, His-tagged PRC2 complex, sequence (Q15022 whole entry partner): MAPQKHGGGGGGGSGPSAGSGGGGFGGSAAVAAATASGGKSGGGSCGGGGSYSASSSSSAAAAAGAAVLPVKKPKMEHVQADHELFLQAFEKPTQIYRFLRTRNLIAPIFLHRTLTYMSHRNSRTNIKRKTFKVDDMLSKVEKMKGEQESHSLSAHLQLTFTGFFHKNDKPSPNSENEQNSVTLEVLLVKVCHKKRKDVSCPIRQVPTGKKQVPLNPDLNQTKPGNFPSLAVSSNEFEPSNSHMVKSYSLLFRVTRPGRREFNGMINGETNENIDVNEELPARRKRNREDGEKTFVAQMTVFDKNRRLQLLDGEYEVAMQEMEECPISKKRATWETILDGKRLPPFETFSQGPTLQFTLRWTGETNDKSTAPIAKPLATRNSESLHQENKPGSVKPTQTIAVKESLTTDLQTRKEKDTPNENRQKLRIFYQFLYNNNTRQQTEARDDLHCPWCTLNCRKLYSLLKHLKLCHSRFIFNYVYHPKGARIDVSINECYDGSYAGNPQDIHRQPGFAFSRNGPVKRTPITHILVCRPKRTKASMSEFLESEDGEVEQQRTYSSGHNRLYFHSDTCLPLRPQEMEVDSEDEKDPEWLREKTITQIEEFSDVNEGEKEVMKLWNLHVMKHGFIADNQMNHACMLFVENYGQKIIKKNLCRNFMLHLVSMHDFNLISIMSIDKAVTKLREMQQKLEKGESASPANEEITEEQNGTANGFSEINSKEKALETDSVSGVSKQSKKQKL
purified human, His-tagged PRC2 complex, sequence (Q6ZN18 whole entry partner): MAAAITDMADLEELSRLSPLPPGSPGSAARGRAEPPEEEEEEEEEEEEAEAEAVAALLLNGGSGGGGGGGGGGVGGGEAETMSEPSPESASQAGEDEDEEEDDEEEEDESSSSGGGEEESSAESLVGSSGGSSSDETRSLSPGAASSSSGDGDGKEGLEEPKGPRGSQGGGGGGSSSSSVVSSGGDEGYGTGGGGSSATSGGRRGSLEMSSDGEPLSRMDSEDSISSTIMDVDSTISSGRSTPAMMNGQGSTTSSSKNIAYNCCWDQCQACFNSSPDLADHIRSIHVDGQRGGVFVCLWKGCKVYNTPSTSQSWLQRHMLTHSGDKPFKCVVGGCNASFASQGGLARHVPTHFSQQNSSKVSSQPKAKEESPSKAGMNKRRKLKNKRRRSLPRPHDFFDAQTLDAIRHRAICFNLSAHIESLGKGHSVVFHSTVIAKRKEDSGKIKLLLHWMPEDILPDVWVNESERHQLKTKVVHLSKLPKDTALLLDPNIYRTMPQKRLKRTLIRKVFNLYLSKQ
purified human, His-tagged PRC2 complex, sequence (Q09028 whole entry partner): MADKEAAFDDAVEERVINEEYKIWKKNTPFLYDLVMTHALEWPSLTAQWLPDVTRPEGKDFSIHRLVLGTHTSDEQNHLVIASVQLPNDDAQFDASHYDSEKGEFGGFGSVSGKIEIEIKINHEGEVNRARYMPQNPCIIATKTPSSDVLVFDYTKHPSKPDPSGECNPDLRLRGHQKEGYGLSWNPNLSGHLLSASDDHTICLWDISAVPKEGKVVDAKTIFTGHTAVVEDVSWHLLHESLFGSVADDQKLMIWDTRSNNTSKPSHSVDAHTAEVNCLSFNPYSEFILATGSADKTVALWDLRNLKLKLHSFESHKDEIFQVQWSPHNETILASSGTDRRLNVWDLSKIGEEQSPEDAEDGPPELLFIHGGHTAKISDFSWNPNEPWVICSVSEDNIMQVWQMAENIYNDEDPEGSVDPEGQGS

IC50 | SMILES
< 100 nM | Cc1cncc(-c2cnc(NCc3c(F)ccc4c3CCO4)n3cc(C#N)nc23)c1 [Example 96, 5-(((5-fluoro-2,3-dihydrobenzofuran-4-yl)methyl)amino)-8-(5-methylpyridin-3-yl)imidazo[1,2-c]pyrimidine-2-carbonitrile]
< 100 nM | N#Cc1cn2c(NCc3c(F)ccc4c3CCO4)ncc(-c3cncc(F)c3)c2n1 [Example 97, 5-(((5-fluoro-2,3-dihydrobenzofuran-4-yl)methyl)amino)-8-(5-fluoropyridin-3-yl)imidazo[1,2-c]pyrimidine-2-carbonitrile]
< 100 nM | Cc1ccncc1-c1cnc(NCc2c(F)ccc3c2CCO3)n2cc(C#N)nc12 [Example 98, 5-(((5-fluoro-2,3-dihydrobenzofuran-4-yl)methyl)amino)-8-(4-methylpyridin-3-yl)imidazo[1,2-c]pyrimidine-2-carbonitrile]
< 100 nM | CC(C)n1cc(-c2cnc(NCc3c(F)ccc4c3CCO4)n3cc(C#N)nc23)cn1 [Example 99, 5-(((5-fluoro-2,3-dihydrobenzofuran-4-yl)methyl)amino)-8-(1-isopropyl-1H-pyrazol-4-yl)imidazo[1,2-c]pyrimidine-2-carbonitrile]
< 100 nM | N#Cc1cn2c(NCc3c(F)ccc4c3CCO4)ncc(-c3cccnc3)c2n1 [Example 100, 5-(((5-fluoro-2,3-dihydrobenzofuran-4-yl)methyl)amino)-8-(pyridin-3-yl)imidazo[1,2-c]pyrimidine-2-carbonitrile]
100 to 500 nM | N#Cc1cn2c(NCc3c(F)ccc4c3CCO4)ncc(-c3cnn(Cc4cccnc4)c3)c2n1 [Example 101, 5-(((5-fluoro-2,3-dihydrobenzofuran-4-yl)methyl)amino)-8-(1-(pyridin-3-ylmethyl)-1H-pyrazol-4-yl)imidazo[1,2-c]pyrimidine-2-carbonitrile]

More lines, now with the values behind:

SMILES | IC50
Cc1nc(OC(C)C)ncc1-c1cnc(NCc2c(F)ccc3c2CCO3)n2cc(C#N)nc12 [Example 89, 5-(((5-fluoro-2,3-dihydrobenzofuran-4-yl)methyl)amino)-8-(2-isopropoxy-4-methylpyrimidin-5-yl)imidazo[1,2-c]pyrimidine-2-carbonitrile] | < 100 nM
CC(c1ccc(-c2cnc(NCc3c(F)ccc4c3CCO4)n3cc(C#N)nc23)cc1)N1CCCC1 (stereo not shown) [Example 90, 5-(((5-fluoro-2,3-dihydrobenzofuran-4-yl)methyl)amino)-8-(4-(1-(pyrrolidin-1-yl)ethyl)phenyl)imidazo[1,2-c]pyrimidine-2-carbonitrile] | < 100 nM
COc1cc(Cl)c(-c2cnc(NCc3c(F)ccc4c3CCO4)n3cc(C#N)nc23)cn1 [Example 91, 8-(4-chloro-6-methoxypyridin-3-yl)-5-(((5-fluoro-2,3-dihydrobenzofuran-4-yl)methyl)amino)imidazo[1,2-c]pyrimidine-2-carbonitrile] | 100 to 500 nM
Cc1nn(C(C)C)c(C)c1-c1cnc(NCc2c(F)ccc3c2CCO3)n2cc(C#N)nc12 [Example 92, 5-(((5-fluoro-2,3-dihydrobenzofuran-4-yl)methyl)amino)-8-(1-isopropyl-3,5-dimethyl-1H-pyrazol-4-yl)imidazo[1,2-c]pyrimidine-2-carbonitrile] | 100 to 500 nM
COc1cncc(-c2cnc(NCc3c(F)ccc4c3CCO4)n3cc(C#N)nc23)c1 [Example 93, 5-(((5-fluoro-2,3-dihydrobenzofuran-4-yl)methyl)amino)-8-(5-methoxypyridin-3-yl)imidazo[1,2-c]pyrimidine-2-carbonitrile] | 100 to 500 nM
COc1ccc(-c2cnc(NCc3c(F)ccc4c3CCO4)n3cc(C#N)nc23)cn1 [Example 94, 5-(((5-fluoro-2,3-dihydrobenzofuran-4-yl)methyl)amino)-8-(6-methoxypyridin-3-yl)imidazo[1,2-c]pyrimidine-2-carbonitrile] | < 100 nM
N#Cc1cncc(-c2cnc(NCc3c(F)ccc4c3CCO4)n3cc(C#N)nc23)c1 [Example 95, 8-(5-cyanopyridin-3-yl)-5-(((5-fluoro-2,3-dihydrobenzofuran-4-yl)methyl)amino)imidazo[1,2-c]pyrimidine-2-carbonitrile] | < 100 nM
